Columns and labels:
[1] = tested on: Stichococcus bacillaris SAG 379-1a / CCAP 379/1a; test: Algal efficacy testing of dry paint films (modified ASTM D5589-09), Stichococcus; assay type: cell-based; conditions: 672 h
Protocol: (§1) Slurries containing 33% flurochloridone were post added to a white, acrylic/silicone based outdoor paint free of biocides to give a total active ingredient concentration of 10000 and 1000 ppm respectively. These paints were then diluted with an antimicrobial free acrylic/silicone based paint and mixed to prepare targeted concentrations of antimicrobial compounds for the testing. The total biocides concentrations tested were 125, 250, 500, 1000, 2000 and 5000 ppm. After biocides addition or dilution, the paints were mixed 90 seconds with the horse power shaker (AXEL 75M3372/Agitateur SO-10MI) until uniformity was achieved. Paints containing different antimicrobial compounds at the same levels were mixed together in order to obtain the desired ratio of antimicrobial compounds. After one day, the paints were applied to Schleicher & Schuell filter paper at 280 μm wet film thickness and dried for 3 days at room temperature avoiding direct exposure to sunlight. Square discs (1.6 cm×1.6 cm) were cut out from each panel and were used as the substrate for algal efficacy tests. This sample size allowed for an agar border when the sample disc was placed into the well of the test plate. […]
(§2) At the end of the four week incubation period, the samples were scored for percent inhibition regarding visible algal growth compared to the blank sample (0% inhibition).
(§3) The SI is calculated based on F. C. […]

Chlorella sp. ATCC 7516 = test: Algal efficacy testing of dry paint films (modified ASTM D5589-09), Chlorella; assay type: cell-based; conditions: 672 h
Protocol: as §1, §2, §3

O=c1[nH]c2c(c(=O)n1C1CCCCC1)CCC2 [Lenacil, 3-cyclohexyl-1,5,6,7-tetrahydrocyclopentapyrimidine-2,4(3H)-dione]
inhibition at 5000 ppm [1]: 65%
inhibition at 5000 ppm (Chlorella sp. ATCC 7516): 45%

O=C1C(Cl)C(CCl)CN1c1cccc(C(F)(F)F)c1 (stereo not shown) [Flurochloridone, 3-chloro-4-(chloromethyl)-1-[3-(trifluoromethyl)phenyl]-2-pyrrolidinone]
inhibition at 2000 ppm ([1]; Stichococcus, total conc 2000 ppm in paint, 4 weeks, visible algal growth vs blank): 50%
inhibition at 2000 ppm (Chlorella sp. ATCC 7516; total conc 2000 ppm in paint, 4 weeks, visible algal growth vs blank): 60%

— patent publication US9408389B2 (Rohm and Haas Company, priority 2013, dated 2016)
